Experiments:
HLA-E = HLA-E surface stabilization assay with RMA-S/HLA-E cells; type: cell-based, human; details: peptide 3-300 µM (Fig. 3: 30 µM) in OptiMEM, 16 h, 37 °C, anti-HLA-E 3D12, flow cytometry, n = 4 replicate experiments
CD94/NKG2A = target: T1, CD94/NKG2A (Homo sapiens, UniProt P26715+Q13241); experiment: CD94/NKG2A tetramer staining of yeast-displayed peptide-HLA-E; type: binding; details: yeast-displayed single chain trimer, 500 nM tetramer, 2 h, 4 °C, flow cytometry
T1 construct: The C-terminus of human NKG2A or NKG2C ectodomain was connected via a GGSGGS linker to human CD94 ectodomain; AviTag biotinylation tag (C); poly-histidine tag (C); made in house; host or cells: baculovirus, High Five (Hi5) insect cells
Description: To study the diversity of the HLA-E peptide repertoire recognized by CD94/NKG2x, we adapted an MHC yeast surface display system previously used to study class Ia MHC-restricted TCR recognition[25],[26]. In this system, peptide, Beta-2-microglobulin (β2M), and MHC heavy chain are covalently linked to each other and fused to the N-terminus of the yeast mating factor protein Aga2p (Fig. 1A, B). The HLA-E single chain trimer construct expressed well on the yeast surface, as confirmed via staining for an included hemagglutinin (HA) epitope tag and via an anti-HLA-E antibody (Fig. 1C). Since epitope tag staining assesses construct expression rather than protein fold[27]–[29], we tested peptide-HLA-E (pHLA-E) fold by staining with its cognate NK receptors. […] (Supplemental Fig. 1A, E–G), though both receptors were able to bind and enable selective enrichment of […]/HLA-E-expressing yeast using avid streptavidin-coated beads (Supplemental Fig. 1B–D).
To stain peptide-HLA-E (pHLA-E) with CD94/NKG2x tetramers, each biotinylated receptor was mixed with streptavidin coupled to AlexaFluor647 (SAV-647, made in-house) at a 5:1 ratio and incubated for 5 min on ice. Yeast were stained with 500 nM tetramer for 2 h at 4 °C in the dark with rotation. […]

T1 sequence (Q13241 whole entry, looked up, the tested form may be a part): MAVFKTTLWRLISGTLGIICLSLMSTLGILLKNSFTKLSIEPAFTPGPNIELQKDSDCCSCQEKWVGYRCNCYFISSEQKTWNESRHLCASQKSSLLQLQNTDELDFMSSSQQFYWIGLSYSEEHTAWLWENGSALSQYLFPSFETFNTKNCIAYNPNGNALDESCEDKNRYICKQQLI
T1 sequence (P26715 whole entry, looked up, the tested form may be a part): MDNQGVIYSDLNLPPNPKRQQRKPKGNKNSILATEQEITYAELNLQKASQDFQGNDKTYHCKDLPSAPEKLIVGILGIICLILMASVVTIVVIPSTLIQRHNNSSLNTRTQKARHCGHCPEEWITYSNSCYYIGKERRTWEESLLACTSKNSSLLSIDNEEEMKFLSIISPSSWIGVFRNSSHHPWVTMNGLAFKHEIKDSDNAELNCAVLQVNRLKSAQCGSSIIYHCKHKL

| Sequence | stabilization of HLA-E surface expression (HLA-E) | CD94/NKG2A tetramer staining (CD94/NKG2A) |
| --- | --- | --- |
| VNPGRSLFL [BFAR263-271, human peptide from Bifunctional apoptosis regulator] | weak but detectable stabilization | – |
| VMAPRTLFL [positive control] | – | positively stained cells |

Source: paper PMC10412585 (Nature Communications, 2023)
